“Also recorded” adds a separate entry of the source.
System: HeLa cells
Assay: Cell morphology analysis (microscopy)
Assay type: cell-based
Settings: 40 μM, 72 h, 4% methanol
Protocol: (§1) HeLa cells were maintained in high-glucose Dulbecco’s Modified Eagle Medium (DMEM) supplemented with 10% (v/v) fetal bovine serum (FBS) at 37 °C in an incubator with 5% CO2.
HeLa cells were seeded at a density of 1.5 × 10^5 per well in 6-well plates and incubated overnight. Cells were then treated with different concentrations of flavonoids for 72 h. The final concentrations of methanol and DMSO were 4% and 1%, respectively. Morphology changes were observed using an Olympus IX83 (Evident Scientific, Tokyo, Japan) inverted microscope with a 40× objective.

For `COc1cc(-c2oc3cc(O)cc(O)c3c(=O)c2O)ccc1O` [Isorhamnetin], the “morphological changes in HeLa cells” value was “clear apoptotic features, including cell shrinkage, detachment, and the formation of apoptosis bodies; also recorded: classic apoptosis features”.
With `O=c1c(O)c(-c2ccc(O)c(O)c2)oc2cc(O)ccc12` [Fisetin] the “morphological changes in HeLa cells” value was “clear apoptotic features, including cell shrinkage, detachment, and the formation of apoptosis bodies; also recorded: classic apoptosis features”.
In the case of `O=c1c(O)c(-c2ccc(O)cc2O)oc2cc(O)cc(O)c12` [Morin], the “morphological changes in HeLa cells” value is reported as “clear apoptotic features, including cell shrinkage, detachment, and the formation of apoptosis bodies; also recorded: classic apoptosis features”.

Same assay, conditions: 100 μM, 72 h, 1% DMSO

With `O=c1c(O)c(-c2ccc(O)cc2)oc2cc(O)cc(O)c12` [Kaempferol, 3,5,7,4′-tetrahydroxyflavone] the “morphological changes in HeLa cells” value was “significant elongation and shrinkage; also recorded: elongated morphology”.

Target: T1, DYRK1A (Homo sapiens, UniProt Q13627)
T1 construct: The DNA encoding DYRK1A with a non-cleavable N-terminal MBP-tag was synthesized by Genscript; made in house; host or cells: E. coli BL21 (DE3) RIPL
Assay: DYRK1A kinase inhibition assay (ADP-Glo Kinase Assay, DYRKtide substrate);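 further: DYRKtide phosphorylation read out by luminescence, reaction run in Tris buffer pH 7.5 with MgCl2 and BSA, containing 1% DMSO or methanol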
Assay type: biochemical
Settings: not given

Work on `COc1cc(-c2oc3cc(O)cc(O)c3c(=O)c2O)ccc1O` [Isorhamnetin] yielded an IC50 of 418 nM.

Same assay, conditions: ADP-Glo; 100 μM ATP, 1 mg/mL DYRKtide, 30 nM DYRK1A, 1 h room temperature; read-out: IC50

In order of falling IC50:
1. COc1ccc(-c2oc3cc(O)cc(O)c3c(=O)c2O)cc1 [Kaempferide]  3520 nM
2. O=c1cc(-c2ccc(O)cc2)oc2cc(O)cc(O)c12 [Apigenin]  1020 nM
3. O=c1cc(-c2ccc(O)c(O)c2)oc2cc(O)cc(O)c12 [Luteolin]  798 nM
4. O=c1c(O)c(-c2ccc(O)c(O)c2)oc2cc(O)cc(O)c12 [Quercetin, reference compound]  738 nM
5. O=c1c(O)c(-c2cc(O)c(O)c(O)c2)oc2cc(O)cc(O)c12 [Myricetin]  633 nM
6. O=c1c(O)c(-c2ccc(O)cc2O)oc2cc(O)cc(O)c12 [Morin]  478 nM
7. O=c1c(O)c(-c2ccc(O)cc2)oc2cc(O)cc(O)c12 [Kaempferol, 3,5,7,4′-tetrahydroxyflavone]  296 nM
8. O=c1c(O)c(-c2ccc(O)c(O)c2)oc2cc(O)ccc12 [Fisetin]  149 nM

Same assay, conditions: at the concentrations tested

In the case of `O=C1c2c(O)cc(O)cc2O[C@H](c2cc(O)c(O)c(O)c2)[C@H]1O` [Dihydromyricetin], the “DYRK1A inhibition (in words)” value is reported as “no detectable activity; also recorded: lack of activity”.
In the case of `COc1cc(-c2oc3cc(O)cc(O)c3c(=O)c2O)ccc1O` [Isorhamnetin], the “DYRK1A inhibition (in words)” value is reported as “moderate activity”.
With `O=c1c(O)c(-c2ccccc2)oc2ccccc12` [3-Hydroxyflavone] the “DYRK1A inhibition (in words)” value was “no detectable activity; also recorded: low inhibition of kinase”.
In the case of `O=c1c(O)c(-c2ccccc2)oc2cc(O)ccc12` [3,7-Dihydroxyflavone], the “DYRK1A inhibition (in words)” value is reported as “only weak inhibition; also recorded: low inhibition of kinase”.
For `COc1ccc(-c2oc3cc(O)cc(O)c3c(=O)c2O)cc1` [Kaempferide], the “DYRK1A inhibition (in words)” value was “effective inhibition”.
With `O=C1C[C@@H](c2ccc(O)cc2)Oc2cc(O)cc(O)c21` [Naringenin] the “DYRK1A inhibition (in words)” value was “only weak inhibition”.
In the case of `O=c1c(O)c(-c2ccccc2)oc2ccc(O)cc12` [3,6-Dihydroxyflavone], the “DYRK1A inhibition (in words)” value is reported as “only weak inhibition; also recorded: low inhibition of kinase”.
For `O=c1cc(-c2ccc(O)cc2)oc2cc(O)cc(O)c12` [Apigenin], the “DYRK1A inhibition (in words)” value was “effective inhibition”.
For `O=c1c(O)c(-c2ccc(O)cc2)oc2cc(O)cc(O)c12` [Kaempferol, 3,5,7,4′-tetrahydroxyflavone], the “DYRK1A inhibition (in words)” value was “moderate activity”.

Same assay, conditions: at the concentrations tested; listed as apigenin

With `O=c1cc(-c2ccc(O)cc2)oc2cc(O)cc(O)c12` [Apigenin] the “DYRK1A inhibition (in words)” value was “only weak inhibition”.

Same assay, conditions: at the concentrations tested; listed as kaempferide

For `COc1ccc(-c2oc3cc(O)cc(O)c3c(=O)c2O)cc1` [Kaempferide], the “DYRK1A inhibition (in words)” value was “only weak inhibition; also recorded: low inhibition of kinase”.

System: not given
Assay: not given
Settings: ACD/LogP; ref ChemSpider; cited from earlier work

In order of rising LogP:
1. O=C1c2c(O)cc(O)cc2O[C@H](c2cc(O)c(O)c(O)c2)[C@H]1O [Dihydromyricetin]  1.23
2. O=c1c(O)c(-c2ccc(O)cc2O)oc2cc(O)cc(O)c12 [Morin]  1.61
3. COc1cc(-c2oc3cc(O)cc(O)c3c(=O)c2O)ccc1O [Isorhamnetin]  1.76
4. O=c1c(O)c(-c2ccc(O)cc2)oc2cc(O)cc(O)c12 [Kaempferol, 3,5,7,4′-tetrahydroxyflavone]  2.05
5. O=c1c(O)c(-c2ccc(O)c(O)c2)oc2cc(O)cc(O)c12 [Quercetin, reference compound]  2.08
6. O=c1c(O)c(-c2cc(O)c(O)c(O)c2)oc2cc(O)cc(O)c12 [Myricetin]  2.11
7. O=c1cc(-c2ccc(O)c(O)c2)oc2cc(O)cc(O)c12 [Luteolin]  2.40
8. O=c1c(O)c(-c2ccc(O)c(O)c2)oc2cc(O)ccc12 [Fisetin]  2.52
9. COc1ccc(-c2oc3cc(O)cc(O)c3c(=O)c2O)cc1 [Kaempferide]  2.74
10. O=c1cc(-c2ccc(O)cc2)oc2cc(O)cc(O)c12 [Apigenin]  3.04
11. O=C1C[C@@H](c2ccc(O)cc2)Oc2cc(O)cc(O)c21 [Naringenin]  3.19
12. O=c1c(O)c(-c2ccccc2)oc2cc(O)ccc12 [3,7-Dihydroxyflavone]  3.27
13. O=c1c(O)c(-c2ccccc2)oc2ccc(O)cc12 [3,6-Dihydroxyflavone]  3.64
14. O=c1c(O)c(-c2ccccc2)oc2ccccc12 [3-Hydroxyflavone]  3.76

Same assay, conditions: first figure of HBA/HBD; ref ChemSpider; cited from earlier work

In order of falling “HBA (hydrogen bond acceptor number)” value:
1. O=C1c2c(O)cc(O)cc2O[C@H](c2cc(O)c(O)c(O)c2)[C@H]1O [Dihydromyricetin]  8
2. O=c1c(O)c(-c2cc(O)c(O)c(O)c2)oc2cc(O)cc(O)c12 [Myricetin]  8
3. COc1cc(-c2oc3cc(O)cc(O)c3c(=O)c2O)ccc1O [Isorhamnetin]  7
4. O=c1c(O)c(-c2ccc(O)c(O)c2)oc2cc(O)cc(O)c12 [Quercetin, reference compound]  7
5. O=c1c(O)c(-c2ccc(O)cc2O)oc2cc(O)cc(O)c12 [Morin]  7
6. O=c1cc(-c2ccc(O)c(O)c2)oc2cc(O)cc(O)c12 [Luteolin]  6
7. COc1ccc(-c2oc3cc(O)cc(O)c3c(=O)c2O)cc1 [Kaempferide]  6
8. O=c1c(O)c(-c2ccc(O)c(O)c2)oc2cc(O)ccc12 [Fisetin]  6
9. O=c1c(O)c(-c2ccc(O)cc2)oc2cc(O)cc(O)c12 [Kaempferol, 3,5,7,4′-tetrahydroxyflavone]  6
10. O=C1C[C@@H](c2ccc(O)cc2)Oc2cc(O)cc(O)c21 [Naringenin]  5
11. O=c1cc(-c2ccc(O)cc2)oc2cc(O)cc(O)c12 [Apigenin]  5
12. O=c1c(O)c(-c2ccccc2)oc2cc(O)ccc12 [3,7-Dihydroxyflavone]  4
13. O=c1c(O)c(-c2ccccc2)oc2ccc(O)cc12 [3,6-Dihydroxyflavone]  4
14. O=c1c(O)c(-c2ccccc2)oc2ccccc12 [3-Hydroxyflavone]  3

Same assay, conditions: polar surface area; ref ChemSpider; cited from earlier work

In order of falling PSA:
1. O=C1c2c(O)cc(O)cc2O[C@H](c2cc(O)c(O)c(O)c2)[C@H]1O [Dihydromyricetin]  148 Å^2
2. O=c1c(O)c(-c2cc(O)c(O)c(O)c2)oc2cc(O)cc(O)c12 [Myricetin]  148 Å^2
3. O=c1c(O)c(-c2ccc(O)c(O)c2)oc2cc(O)cc(O)c12 [Quercetin, reference compound]  127 Å^2
4. O=c1c(O)c(-c2ccc(O)cc2O)oc2cc(O)cc(O)c12 [Morin]  127 Å^2
5. COc1cc(-c2oc3cc(O)cc(O)c3c(=O)c2O)ccc1O [Isorhamnetin]  116 Å^2
6. O=c1cc(-c2ccc(O)c(O)c2)oc2cc(O)cc(O)c12 [Luteolin]  107 Å^2
7. O=c1c(O)c(-c2ccc(O)c(O)c2)oc2cc(O)ccc12 [Fisetin]  107 Å^2
8. O=c1c(O)c(-c2ccc(O)cc2)oc2cc(O)cc(O)c12 [Kaempferol, 3,5,7,4′-tetrahydroxyflavone]  107 Å^2
9. COc1ccc(-c2oc3cc(O)cc(O)c3c(=O)c2O)cc1 [Kaempferide]  96 Å^2
10. O=C1C[C@@H](c2ccc(O)cc2)Oc2cc(O)cc(O)c21 [Naringenin]  87 Å^2
11. O=c1cc(-c2ccc(O)cc2)oc2cc(O)cc(O)c12 [Apigenin]  87 Å^2
12. O=c1c(O)c(-c2ccccc2)oc2cc(O)ccc12 [3,7-Dihydroxyflavone]  67 Å^2
13. O=c1c(O)c(-c2ccccc2)oc2ccc(O)cc12 [3,6-Dihydroxyflavone]  67 Å^2
14. O=c1c(O)c(-c2ccccc2)oc2ccccc12 [3-Hydroxyflavone]  47 Å^2

Same assay, conditions: second figure of HBA/HBD; ref ChemSpider; cited from earlier work

In order of rising “HBD (hydrogen bond donor number)” value:
1. O=c1c(O)c(-c2ccccc2)oc2ccccc12 [3-Hydroxyflavone]  1
2. O=c1c(O)c(-c2ccccc2)oc2cc(O)ccc12 [3,7-Dihydroxyflavone]  2
3. O=c1c(O)c(-c2ccccc2)oc2ccc(O)cc12 [3,6-Dihydroxyflavone]  2
4. COc1ccc(-c2oc3cc(O)cc(O)c3c(=O)c2O)cc1 [Kaempferide]  3
5. O=C1C[C@@H](c2ccc(O)cc2)Oc2cc(O)cc(O)c21 [Naringenin]  3
6. O=c1cc(-c2ccc(O)cc2)oc2cc(O)cc(O)c12 [Apigenin]  3
7. O=c1cc(-c2ccc(O)c(O)c2)oc2cc(O)cc(O)c12 [Luteolin]  4
8. COc1cc(-c2oc3cc(O)cc(O)c3c(=O)c2O)ccc1O [Isorhamnetin]  4
9. O=c1c(O)c(-c2ccc(O)c(O)c2)oc2cc(O)ccc12 [Fisetin]  4
10. O=c1c(O)c(-c2ccc(O)cc2)oc2cc(O)cc(O)c12 [Kaempferol, 3,5,7,4′-tetrahydroxyflavone]  4
11. O=c1c(O)c(-c2ccc(O)c(O)c2)oc2cc(O)cc(O)c12 [Quercetin, reference compound]  5
12. O=c1c(O)c(-c2ccc(O)cc2O)oc2cc(O)cc(O)c12 [Morin]  5
13. O=C1c2c(O)cc(O)cc2O[C@H](c2cc(O)c(O)c(O)c2)[C@H]1O [Dihydromyricetin]  6
14. O=c1c(O)c(-c2cc(O)c(O)c(O)c2)oc2cc(O)cc(O)c12 [Myricetin]  6

System: HeLa cells
Assay: Cell viability assay (WST-8)
Assay type: cell-based
Settings: 48 h treatment, WST-8, various concentrations
Protocol: as §1
HeLa cells were seeded at a density of 3.3 × 10^3 per well in 96-well plates and incubated overnight. Cells were then treated with various concentrations of flavonoids. After 48 h incubation, 10 μL of WST-8 reagent (ab228554, Abcam, Waltham, MA, USA) was added to each well and incubated for 1 h at 37 °C. Absorbance was measured at 460 nm using a microtiter plate reader (SpectraMax iD3, Molecular Devices, LLC., San Jose, CA, USA).

In the case of `COc1cc(-c2oc3cc(O)cc(O)c3c(=O)c2O)ccc1O` [Isorhamnetin], the “cytotoxicity / cell viability of HeLa cells (in words)” value (from here on “cytotoxicity / cell viability”) is reported as “minimal cytotoxicity”.
For `O=c1c(O)c(-c2ccc(O)c(O)c2)oc2cc(O)ccc12` [Fisetin], the “cytotoxicity / cell viability” value was “slight cytotoxicity effect”.
With `O=c1c(O)c(-c2ccc(O)cc2O)oc2cc(O)cc(O)c12` [Morin] the “cytotoxicity / cell viability” value was “slight cytotoxicity effect; also recorded: significantly reduced”.
In the case of `O=c1c(O)c(-c2ccc(O)cc2)oc2cc(O)cc(O)c12` [Kaempferol, 3,5,7,4′-tetrahydroxyflavone], the “cytotoxicity / cell viability” value is reported as “significant cytotoxicity; also recorded: significantly reduced; also recorded: significant cytotoxic and pro-apoptotic effects”.

Same assay, conditions: 48 h treatment, WST-8, various concentrations; listed as fisetin

With `O=c1c(O)c(-c2ccc(O)c(O)c2)oc2cc(O)ccc12` [Fisetin] the “cytotoxicity / cell viability” value was “significantly reduced”.

From publication PMC12292390, “Discovery of Dietary Plant Flavonols as Novel Potent Inhibitors Targeting DYRK1A Kinase” (Biomolecules, 2025)
